Consider two substances from US20060116325A1, “Methods and compositions for inhibiting hiv-coreceptor interactions” (priority 2001, published 2006).

Experiment [1] has as its target T1, CXCR4 (Homo sapiens, UniProt P61073). Briefly: Ca2+ mobilization in THP-1 cells in response to SDF-1α (fura-2). In kind it is cell-based. Conditions: peptide 500 μM preincubated, SDF-1α 100 ng/ml, FIG. 6. Here is the method:
FIGS. 6A through 6D depict the effect of peptide pre-treatment on the mobilization of intracellular Ca^2+ in THP-1 cells in response to SDF-1α. Cells loaded with fura-2 were preincubated with peptide 15K (FIG. 6C), 15D (FIG. 6B) and 15CW (FIG. 6D) at a final concentration of 500 μM for 3 min prior to stimulation with SDF-1α (100 ng/ml).
THP-1 cells (12×10^6/ml in RPMI 1640 containing 10% FSB) were loaded in the presence of 5 μM fura-2 AM (Molecular Probes, Eugene, Oreg.) at 22° C. for 30 min in the dark. Subsequently, cells were washed three times and resuspended (10^6 cells/ml) in the buffer containing 138 mM sodium chloride, 6 mM potassium chloride, 1 mM calcium chloride, 1 mM magnesium chloride, 10 mM HEPES, pH 7.4,5 mM glucose, and 0.1% bovine serum albumin. 1.93 ml of loaded cells was transferred into a quartz cuvette. 50 μl of a peptide stock solution (2×10^−2 M) was added to the cells, and after 3 min of incubation 20 μl of human SDF-1α (10 μg/ml, PeproTech) was added to a stirred cuvette. The measurements were performed using luminescence spectrophotometer LS50 B (Perkin-Elmer). Ca^2+ mobilization in the cells in response to SDF-1α was measured by analysis of the ratio of fluorescence emitted at 510 nm after sequential excitation at 340 and 380 nm.
The increase of intracellular Ca^2+ concentration mediated by a chemokine receptor in response to a cognate chemokine is a reliable assay for measurement of chemokine agonist activity. The human monocytic cell line THP-1 expresses a high level of CXCR4 and responds well to SDF-1α stimulation (FIG. 6A), so these cells were used to determine whether peptides 15D and 15K could block the activation of CXCR4.

Experiment [2] addresses T1, CXCR4. The experiment is described as follows: Competition with radiolabeled SDF-1α binding to HEK-CXCR4 cells. More on the design: host or cells: CEMx174 (174xCEM). Conditions: high concentrations (e.g., 100 μM) of peptide required, FIG. 1. On the procedure: (§1) Binding assays were performed with HEK-CCR5 or HEK CXCR4 in triplicate by adding unlabeled competitor (anti-coreceptor binding peptide or control chemokine) and radiolabeled chemokine, 0.2 ng/ml (^125I-MIP-1β or SDF-1α, specific activity 2000 Ci/mmol, NEN Life Science Products) to a cell suspension (4×10^5 cells in 200 μl) in RPMI 1640 supplemented with 1% bovine serum albumin and 25 mM HEPES pH 8.0 (binding medium). Cells were then incubated at 22° C. for 40 min with continuous rotation. After incubation cells were transferred to the tubes containing 800 μl of 10% sucrose in PBS and harvested by centrifugation. The supernatant was aspirated and the cell-associated radioactivity was measured using a 1272 Wallac gamma counter. […] After incubation cells were transferred to the tubes containing 800 μl of 10% sucrose in PBS and harvested by centrifugation, the supematant was aspirated and the cell-associated radioactivity was measured using a 1272 Wallac gamma counter. The data were analyzed by nonlinear regression using the computer program GraphPad Prizm 3.0.
(§2) Considering that the 15K and 15D peptides were designed in part based on their structural similarity to corresponding chemokine fragments, the binding activity of these peptides for CCR5 and/or CXCR4 receptors, and corresponding anti-coreceptor binding activity against chemokines, was assessed.

In experiment [3] the target is T2, CCR5 (Homo sapiens, UniProt P51681). The experiment is described as follows: Competition with 125I-MIP-1β binding to HEK-CCR5 cells. More on the design: expressed in transfected cells; host or cells: HEK-293. Conditions: high concentrations (e.g., 100 μM) of peptide required, FIG. 1. Here is the method: as §1, §2
Experiment [4] deals with T2, CCR5. The experiment is described as follows: Chemotaxis of HEK-CCR5 cells to RANTES (microchemotaxis chamber). In kind it is cell-based. To be noted: for inhibition of RANTES-directed chemotactic response / induction of chemotaxis by peptide alone: HEK-CCR5 cells; for inhibition of RANTES-directed chemotactic response: RANTES 100 ng/ml, 3 hr; for induction of chemotaxis by peptide alone: tested at any concentration. More on the design: expressed in transfected cells; host or cells: HEK-293. Here is the method: Migration of HEK-CCR5 cells to RANTES alone, or the combination of RANTES and designated concentrations of either 15K or 15D peptides, were determined in micro-chemotaxis chambers. […] The results are representative of three independent experiments. *p<0.05.
Chemotaxis assays for HEK-293 cells transfected with CCRS was performed as previously described (Howard et al., J. Biol. Chem. 274:16228-16234, 1999, incorporated herein by reference). Briefly, the chemokine RANTES, diluted in binding medium to 100 ng/ml, was placed in the lower wells of a microchemotaxis chamber. Polycarbonate membrane pretreated with rat tail collagen type 1 was placed over the chemokine solution. The cells (1×10^6/ml) were suspended in binding medium along with the exemplary peptides 15D or 15K at designated concentrations and placed in the upper wells of the chamber. After incubation for 3 hr the membrane was removed, stained using a Diff-Quik kit (Trends Scientific, Kalamazoo, Mich.) and counted. The results are expressed as the “chemotaxis index”, which represents the ratio of the number of cells in high powered field in test versus control samples.
To achieve this goal, the capacity of these peptides to inhibit the chemotactic response of HEK-CCR5 cells to a cognate ligand of CCR5 receptors, the chemokine RANTES, was assayed.

T1 sequence (P61073 whole entry): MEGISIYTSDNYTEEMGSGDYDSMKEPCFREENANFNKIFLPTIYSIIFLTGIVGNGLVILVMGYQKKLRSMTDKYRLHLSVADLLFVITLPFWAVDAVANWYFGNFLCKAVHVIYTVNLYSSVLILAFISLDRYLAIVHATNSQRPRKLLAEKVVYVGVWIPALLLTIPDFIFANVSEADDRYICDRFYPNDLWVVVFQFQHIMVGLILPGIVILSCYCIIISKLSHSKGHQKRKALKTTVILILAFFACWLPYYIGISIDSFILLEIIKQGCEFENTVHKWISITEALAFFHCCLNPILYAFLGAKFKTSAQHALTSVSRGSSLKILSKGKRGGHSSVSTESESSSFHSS
T2 sequence (P51681 whole entry): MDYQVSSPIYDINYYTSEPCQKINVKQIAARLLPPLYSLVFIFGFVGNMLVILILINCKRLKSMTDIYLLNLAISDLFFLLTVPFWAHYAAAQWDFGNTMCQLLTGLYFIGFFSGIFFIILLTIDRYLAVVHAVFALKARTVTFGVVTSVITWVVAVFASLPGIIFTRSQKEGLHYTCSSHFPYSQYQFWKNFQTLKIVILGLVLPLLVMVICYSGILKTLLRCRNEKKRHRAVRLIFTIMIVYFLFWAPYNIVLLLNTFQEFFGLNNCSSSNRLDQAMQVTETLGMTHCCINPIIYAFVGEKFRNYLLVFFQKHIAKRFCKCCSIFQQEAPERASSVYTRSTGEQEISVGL

For IRKAHCNISRAKWND [Peptide 15K], at CXCR4 [1], the “inhibition of Ca2+ mobilization in response to SDF-1α” value was “inhibited Ca^2+ mobilization although less efficiently than 15D”. For the same substance, the “inhibition of radiolabeled SDF-1α binding to cells expressing CXCR4” value at CXCR4 [2] is on record as “significantly inhibit chemokine binding”. The “inhibition of radiolabeled MIP-1β binding to cells expressing CCR5” value at CCR5 [3] was “significantly inhibit chemokine binding”. Further, the “inhibition of RANTES-directed chemotactic response” value on CCR5 [4] (FIG. 2) is “completely blocked”. In addition, the “induction of chemotaxis by peptide alone” value on CCR5 [4] was “did not induce detectable chemotaxis”.
With “I R K A H C N I S R A D W N D [Peptide 15D]”, the “inhibition of Ca2+ mobilization in response to SDF-1α” value at CXCR4 [1] is recorded as “completely inhibited”. At CXCR4 [2], the “inhibition of radiolabeled SDF-1α binding to cells expressing CXCR4” value was “significantly inhibit chemokine binding”. Also, the “inhibition of radiolabeled MIP-1β binding to cells expressing CCR5” value at CCR5 [3] is “significantly inhibit chemokine binding”. Besides, on CCR5 [4] (15D versus 15K, FIG. 2), the “inhibitory activity on chemotaxis, one peptide compared with the other” value is reported as “consistently exhibited greater inhibitory activity”. In addition, at CCR5 [4] (FIG. 2), the “inhibition of RANTES-directed chemotactic response” value is “completely blocked”. The “induction of chemotaxis by peptide alone” value at CCR5 [4] is on record as “did not induce detectable chemotaxis”.
